From patent US9926292B2, “Pyridinyl derivatives, pharmaceutical compositions and uses thereof” (Boehringer Ingelheim International GmbH, priority 2016, dated 2018) come the findings set out here.

The target of test [1] is T1, AOC3 (Homo sapiens, UniProt Q16853).
T1 construct: expressed in transfected cells; host or cells: CHO cells
T1 sequence (Q16853 1-763): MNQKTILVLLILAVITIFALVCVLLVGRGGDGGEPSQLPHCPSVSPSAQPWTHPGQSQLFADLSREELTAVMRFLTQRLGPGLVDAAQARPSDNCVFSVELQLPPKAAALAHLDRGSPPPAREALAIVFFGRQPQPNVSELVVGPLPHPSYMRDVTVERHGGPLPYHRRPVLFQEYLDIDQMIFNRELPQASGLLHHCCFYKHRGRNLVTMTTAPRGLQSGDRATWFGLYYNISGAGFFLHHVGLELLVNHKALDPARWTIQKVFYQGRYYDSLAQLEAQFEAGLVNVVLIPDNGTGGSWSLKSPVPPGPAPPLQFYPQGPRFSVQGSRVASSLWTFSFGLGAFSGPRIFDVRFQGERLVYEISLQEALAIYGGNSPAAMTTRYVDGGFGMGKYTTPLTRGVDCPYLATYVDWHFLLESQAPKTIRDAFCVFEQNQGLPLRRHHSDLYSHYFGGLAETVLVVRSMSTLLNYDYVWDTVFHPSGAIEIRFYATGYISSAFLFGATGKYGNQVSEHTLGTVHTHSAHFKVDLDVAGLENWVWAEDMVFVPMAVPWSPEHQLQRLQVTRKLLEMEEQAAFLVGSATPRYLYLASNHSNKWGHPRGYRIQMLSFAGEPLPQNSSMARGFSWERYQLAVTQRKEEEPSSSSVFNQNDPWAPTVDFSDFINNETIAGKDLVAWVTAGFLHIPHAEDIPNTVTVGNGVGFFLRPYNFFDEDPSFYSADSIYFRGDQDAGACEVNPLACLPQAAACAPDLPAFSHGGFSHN
The test is described as follows: AOC3 biochemical assay (MAO-Glo). Here is the method: As substrate a derivate of the beetle luciferin ((4S)-4,5-dihydro-2-(6-hydroxybenzothiazolyl)-4-thiazole-carboxylic acid) is used, which is oxidized at a primary amine moiety. After a spontaneous elimination and a catalyzed esterase reaction, the turnover of the luciferine by the luciferase is recorded as a signal of AOC3 activity.
Recombinant CHO cells, overexpressing the human (1500 cells/well), mouse (1000 cells/well) or rat (500 cells/well) AOC3 enzyme are diluted in reaction buffer and added in a volume of 15 μL to the wells. After incubation for 20 minutes at 37° C., 2 μL of MAO substrate (dissolved in DMSO at 16 mM, adjusted to assay concentration in reaction buffer to a final assay concentration of 20 μM) is added and further incubated for 60 minutes at 37° C. The turnover of the substrate is determined by the addition of 20 μL of the detection-mix which was generated by the addition of reconstitution buffer with esterase (PROMEGA, #V1402) to the luciferine detection reagent (PROMEGA, #V1402).

For test [2], the target named is T2, AOC1 (Homo sapiens, UniProt P19801).
T2 construct: purchased R&D Systems 8297-AO-010
T2 sequence (P19801 20-751): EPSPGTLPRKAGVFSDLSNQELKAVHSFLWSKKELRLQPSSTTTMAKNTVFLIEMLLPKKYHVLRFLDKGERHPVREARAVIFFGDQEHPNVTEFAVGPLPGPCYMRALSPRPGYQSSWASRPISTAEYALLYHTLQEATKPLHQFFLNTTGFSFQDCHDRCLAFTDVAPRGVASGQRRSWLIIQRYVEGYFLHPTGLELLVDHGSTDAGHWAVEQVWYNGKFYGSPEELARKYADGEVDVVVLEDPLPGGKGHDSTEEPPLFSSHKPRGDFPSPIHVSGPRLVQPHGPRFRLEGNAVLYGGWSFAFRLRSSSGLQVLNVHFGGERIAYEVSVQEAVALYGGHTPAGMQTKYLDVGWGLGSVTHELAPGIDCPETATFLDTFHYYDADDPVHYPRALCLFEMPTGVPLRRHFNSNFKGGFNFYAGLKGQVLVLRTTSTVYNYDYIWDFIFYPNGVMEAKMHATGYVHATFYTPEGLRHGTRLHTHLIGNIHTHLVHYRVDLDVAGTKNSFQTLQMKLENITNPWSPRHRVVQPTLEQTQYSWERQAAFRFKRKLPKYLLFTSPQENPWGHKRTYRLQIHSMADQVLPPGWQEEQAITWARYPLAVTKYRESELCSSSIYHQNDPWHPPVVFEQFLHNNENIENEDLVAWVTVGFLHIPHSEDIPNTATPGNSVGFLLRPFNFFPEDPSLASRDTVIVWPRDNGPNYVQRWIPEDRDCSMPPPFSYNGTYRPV
Description: AOC1 biochemical assay (Amplex Red). The text has this: The Amplex® Red Assay (available from Thermo Fisher Scientific) provides a sensitive method for the detection of H2O2 generated during enzymatic reactions like the amine oxidation catalyzed by AOC1.

Where [3] appears, read: Table 2, comparison with compounds of EP 2 695 881, read-out: IC50 AOC3.
[4] abbreviates: Table 2, comparison with compounds of EP 2 695 881, read-out: IC50 AOC1.

Each structure is given as a SMILES string. Read-outs that look alike come from different tables or passages of the source.

`COC1CN(c2ncc(-c3cccc(COC(=O)NC(=N)N)c3F)cn2)C1` [Ex. 63, p. 227, reference compound]: the IC50 turned out to be 1 nM in test [1] (setting [3]) and 100 nM in test [2] (setting [4]).
For `CC(=O)N1CCC(COc2ncc(-c3cccc(COC(=O)NC(=N)N)c3F)cn2)CC1` [Ex. 11, p. 221, reference compound], in that order: 1 nM and 6 nM.
On to `CN(C)c1ncc(-c2cccc(COC(=O)NC(=N)N)n2)cn1` [Example 04], for which the IC50 in test [1] (Table 1, read-out: AOC3 IC50) turned out to be 5 nM; in test [2] (Table 1, read-out: AOC1 IC50), 1720 nM.
`N=C(N)NC(=O)OCc1cccc(-c2cnc(OCC3CCN(C(=O)C4CC4)CC3)nc2)c1F` [Ex. 74, p. 229, reference compound]: the IC50 in test [1] (setting [3]) was determined as 1 nM; in test [2] (setting [4]), 8 nM.
Take `CC(Oc1ncc(-c2cccc(COC(=O)NC(=N)N)n2)cn1)c1ccon1` (stereo not drawn) [Example 28]: the IC50 in test [1] (Table 1, read-out: AOC3 IC50) came to 15 nM; in test [2] (Table 1, read-out: AOC1 IC50), 3290 nM.
For the compound `COCCOc1ncc(-c2cccc(COC(=O)NC(=N)N)c2F)cn1` [Ex. 197, p. 243, reference compound], the IC50 stood at 6 nM in test [1] (setting [3]) and 97 nM in test [2] (setting [4]).
Regarding `N=C(N)NC(=O)OCc1cccc(-c2cnc(C3CCOCC3)nc2)n1` [Example 12], the IC50 in test [1] (Table 1, read-out: AOC3 IC50) was 5 nM; in test [2] (Table 1, read-out: AOC1 IC50), 7530 nM.
On the same counts, the results for `N=C(N)NC(=O)OCc1cccc(-c2cnc(OCc3csnn3)nc2)n1` [Example 35] are 3 nM and 1020 nM.
Take `CN(c1ncc(-c2cccc(COC(=O)NC(=N)N)n2)cn1)C1CCOC1` (stereo not drawn) [Example 25]: the IC50 was found to be 3 nM in test [1] (Table 1, read-out: AOC3 IC50) and 483 nM in test [2] (Table 1, read-out: AOC1 IC50).
For `N=C(N)NC(=O)OCc1cccc(-c2cnc(OCC3(F)CC3)nc2)n1` [Example 17, [6-[2-[(1-fluorocyclopropyl)methoxy]pyrimidin-5-yl]-2-pyridyl]-methyl N-carbamimidoylcarbamate], in that order: 5 nM and 3620 nM.
On the same counts, the results for `COCCNc1ncc(-c2cccc(COC(=O)NC(=N)N)n2)cn1` [Example 09] are 7 nM and 1410 nM.
For `COC1CN(c2ncc(-c3cccc(COC(=O)NC(=N)N)n3)cn2)C1` [Example 13], in that order: 2 nM and 1480 nM.
As to `CCOc1ncc(-c2cccc(COC(=O)NC(=N)N)n2)cn1` [Example 05], the IC50 in test [1] (Table 1, read-out: AOC3 IC50) stood at 15 nM; in test [2] (Table 1, read-out: AOC1 IC50), 2390 nM.
On the same counts, the results for `N=C(N)NC(=O)OCc1cccc(-c2cnc(N3CCOCC3)nc2)n1` [Example 14] are 3 nM and 1340 nM.
On the same counts, the results for `N=C(N)NC(=O)OCc1cccc(-c2cnc(OCc3nccs3)nc2)n1` [Example 31] are 3 nM and 612 nM.
For `C#CCCOc1ncc(-c2cccc(COC(=O)NC(=N)N)n2)cn1` [Example 08, [6-(2-but-3-ynoxypyrimidin-5-yl)-2-pyridyl]methyl N-carbamimidoylcarbamate], in that order: 4 nM and 2690 nM.
Consider `N=C(N)NC(=O)OCc1cccc(-c2cnc(OCc3cncs3)nc2)n1` [Example 29], for which the IC50 in test [1] (Table 1, read-out: AOC3 IC50) was 2 nM; in test [2] (Table 1, read-out: AOC1 IC50) it was 659 nM.
For `CCCOc1ncc(-c2cccc(COC(=O)NC(=N)N)n2)cn1` [Example 07, [6-(2-propoxypyrimidin-5-yl)-2-pyridyl]methyl N-carbamimidoylcarbamate], in that order: 5 nM and 2010 nM.
On the same counts, the results for `COCCN(C)c1ncc(-c2cccc(COC(=O)NC(=N)N)n2)cn1` [Example 16] are 9 nM and 718 nM.
For `N=C(N)NC(=O)OCc1cccc(-c2cnc(C3CC3)nc2)n1` [Example 03, [6-(2-cyclopropylpyrimidin-5-yl)-2-pyridyl]methyl N-carbamimidoylcarbamate], in that order: 8 nM and 8030 nM.
Take `N=C(N)NC(=O)OCc1cccc(-c2cnc(O[C@H]3CCOC3)nc2)n1` [Example 15]: the IC50 is 8 nM in test [1] (Table 1, read-out: AOC3 IC50) and 5190 nM in test [2] (Table 1, read-out: AOC1 IC50).
For `N=C(N)NC(=O)OCc1cccc(-c2cnc(OCC3CCN(C(=O)C4CC4)CC3)nc2)n1` [Example 38], in that order: 3 nM and 322 nM.
For `COCCOc1ncc(-c2cccc(COC(=O)NC(=N)N)n2)cn1` [Example 10], in that order: 11 nM and 3480 nM.
On to `CC(F)(F)CNc1ncc(-c2cccc(COC(=O)NC(=N)N)n2)cn1` [Example 19], for which the IC50 in test [1] (Table 1, read-out: AOC3 IC50) came out at 9 nM.
As to `CC(=O)N1CCC(COc2ncc(-c3cccc(COC(=O)NC(=N)N)n3)cn2)CC1` [Example 37], the IC50 worked out at 3 nM in test [1] (Table 1, read-out: AOC3 IC50) and 227 nM in test [2] (Table 1, read-out: AOC1 IC50).
For `Cc1ncc(-c2cccc(COC(=O)NC(=N)N)n2)cn1` [Example 01], in that order: 27 nM and 7600 nM.
On the same counts, the results for `N=C(N)NC(=O)OCc1cccc(-c2cnc(OCC3CCOCC3)nc2)n1` [Example 33] are 3 nM and 899 nM.
As for `N=C(N)NC(=O)OCc1cccc(-c2cnc(N3CCOCC3)nc2)c1F` [Ex. 81, p. 229, reference compound], the figures for the half-maximal inhibitory concentration (IC50) in test [1] (setting [3]) and in test [2] (setting [4]) were 1 nM and 174 nM, respectively.
As for `CSc1ncc(-c2cccc(COC(=O)NC(=N)N)n2)cn1` [Example 06], the IC50 in test [1] (Table 1, read-out: AOC3 IC50) was 15 nM; in test [2] (Table 1, read-out: AOC1 IC50), 10200 nM.
Take `N#CC1(COc2ncc(-c3cccc(COC(=O)NC(=N)N)n3)cn2)CCC1` [Example 27]: the IC50 in test [1] (Table 1, read-out: AOC3 IC50) worked out at 4 nM; in test [2] (Table 1, read-out: AOC1 IC50), 3770 nM.
On the same counts, the results for `C[C@@H](F)COc1ncc(-c2cccc(COC(=O)NC(=N)N)n2)cn1` [Example 11] are 5 nM and 2390 nM.
For `CC(F)(F)COc1ccc(-c2cccc(COC(=O)NC(=N)N)n2)cn1` [Example 18], in that order: 3 nM and 1400 nM.
For the compound `CN(c1ncc(-c2cccc(COC(=O)NC(=N)N)n2)cn1)C1CCOCC1` [Example 32], the IC50 in test [1] (Table 1, read-out: AOC3 IC50) amounted to 2 nM; in test [2] (Table 1, read-out: AOC1 IC50), 710 nM.
`CCOc1ncc(-c2cccc(COC(=O)NC(=N)N)c2F)cn1` [Ex. 136, p. 235, reference compound]: the concentration for half-maximal inhibition (IC50) in test [1] (setting [3]) is 6 nM; in test [2] (setting [4]) it was 60 nM.
For the compound `COc1ncc(-c2cccc(COC(=O)NC(=N)N)n2)cn1` [Example 02], the IC50 is 10 nM in test [1] (Table 1, read-out: AOC3 IC50) and 8070 nM in test [2] (Table 1, read-out: AOC1 IC50).
For `N=C(N)NC(=O)OCc1cccc(-c2cnc(OCc3cnns3)nc2)n1` [Example 34], in that order: 2 nM and 503 nM.
Regarding `N#CC1(COc2ncc(-c3cccc(COC(=O)NC(=N)N)n3)cn2)CC1` [Example 21], the IC50 in test [1] (Table 1, read-out: AOC3 IC50) was 4 nM; in test [2] (Table 1, read-out: AOC1 IC50), 3190 nM.
For `N=C(N)NC(=O)OCc1cccc(-c2ccc(OCc3ccon3)nc2)n1` [Example 23], in that order: 2 nM and 3820 nM.

The term IC50 denotes the concentration that inhibits the measured activity by half.
